Experimental data: patent US20170114025A1, “METHODS FOR INHIBITING NECROPTOSIS” (Catalyst Therapeutics Pty Ltd, priority 2014, published 2017)
Where two headings read alike, the source gives them in different places.

Tests used:
[1] = molecular target: T1, human MLKL(190-471) pseudokinase domain (Homo sapiens, UniProt Q8NB16); assay: Surface Plasmon Resonance (SPR) binding, human MLKL; parameters: made in house; host or cells: Sf21 insect cells; conditions: read-out: Affinity (Kd) as determined by SPR
T1 sequence (Q8NB16 190-471): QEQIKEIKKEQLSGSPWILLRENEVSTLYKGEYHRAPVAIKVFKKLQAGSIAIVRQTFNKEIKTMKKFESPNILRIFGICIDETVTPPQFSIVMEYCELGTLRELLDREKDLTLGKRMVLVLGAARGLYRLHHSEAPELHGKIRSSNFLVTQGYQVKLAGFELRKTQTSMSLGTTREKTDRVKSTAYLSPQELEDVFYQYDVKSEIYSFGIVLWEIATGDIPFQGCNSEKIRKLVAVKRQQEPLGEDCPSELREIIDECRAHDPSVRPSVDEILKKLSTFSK
From the text: Double His-tagged MLKL and an unrelated negative control reference protein were immobilized on an NTA Capture chip charged with Ni^2+ according to manufacturer's instructions. In some instances, double His-tagged proteins were captured via Ni^2+/NTA chelation on a series S sensor chip containing carboxymethylated dextran surface pre-immobilized with nitrilotriacetic acid (NTA). The surface was then activated and enhanced with NHS/EDC mixture and His captured proteins covalently coupled to the surface as succinamide esters. Ethanolamine was injected later to block any unreacted esters. Unbound Ni^2+ and non-covalently bound proteins were eluted by EDTA injections.
Typical immobilization levels were 2000-3000 Response Units (RU). Flow cell 1 was left blank as a reference surface. Immobilization experiments were carried out at 25° C. in a running buffer containing 20 mM HEPES (pH 8.0), 200 mM NaCl and 0.005% (v/v) surfactant P20.
Binding experiments were carried out in Running Buffer+2% v/v DMSO. […] Data were reduced, solvent corrected, and double referenced by Biacore T200 Evaluation Software. Data were fit globally to a two state kinetic interaction model and the Kd determined from the (kd/ka) ratio. A 1:1 binding stoichiometry was inferred from the steady state binding curves and the maximum observed Response Unit (RU) levels.

[2] = tested on: U937 human histiocytic leukemia cell line; assay: Screening for inhibition of TSQ induced necroptosis, 96 well plate format; assay type: cell-based
Protocol: Screening Compounds for Inhibition of TSQ Induced Necroptosis, 96 Well Plate Format.
U937 human histiocytic leukemia cell line.
35,000 per well in 120 μL of media, counted and plated immediately prior to addition of inhibitor and death stimuli. Final well volume of 150 μL after addition of compounds and death stimuli
HTRPMI (WEHI Media kitchen, contains L-Glutamine and penicillin, streptomycin)—supplemented with 7.4% v/v FCS (Gibco, Precision Plus. Lot #1221437)
48 hours following addition of compounds and death stimuli
DMSO Final Concentration (% v/v): 0.2%
Compounds that are in the Death Stimulation Cocktail and their Final Concentrations: • hTNF-Fc (100 ng/ml)—produced by Silke lab, WEHI • Compound A (500 nM)—Smac mimetic, Tetralogic • Q-VD-OPh (10 μM)—MP Biomedicals
Analysis: • Cells treated with PI staining (1 μg/ml) and analysed by flow cytometry
TNF; S: Smac mimetic; Q: Q-VD-OPh): TSQ treatment ensures that cells specifically undergo necroptotic cell death. TNF activates the TNF receptor, Smac mimetic direct the signal away from proinflammatory signaling and toward the RIP1/RIP3-mediated cell death pathways, and Q-VD-OPh ensures that the apoptotic response is blocked leaving only the programmed necrosis response. The compounds' activity (solution in DMSO) tested in this TSQ-induced assay is evaluated by measuring their ability to block cell death as measured by flow cytometry after PI staining.

wild type U937 cells = assay: Cell death assay, TSQ-induced necroptosis in U937 cells (PI, flow cytometry); assay type: cell-based, human; conditions: Homo sapiens
From the text: Mouse dermal fibroblasts (MDFs) were isolated from three MlkI^−/− mice and three congenic wild type mice and then immortalized by SV40 large T antigen to generate three biologically independent cell lines, as described in Murphy J M, et al. (2013), Immunity 39(3):443-453. Immortalized MDFs were similarly prepared from three Ripk3^−/− mice and congenic wild type mice. MDFs and HEK293T were maintained in Dulbecco's modified Eagle's medium (DMEM) supplemented with 8-10% v/v fetal calf serum (FCS), and 5 μg/mL puromycin for lines stably transduced with inducible expression constructs for MLKL. U937 cells were cultured in RPMI1640 supplemented with 8% v/v FCS. Cell death assays were carried out in 24 well plates, seeding 1×10^5 cells per well. Cells attached over 4 h in the presence of 10 ng/mL doxycycline or 20 ng/mL were then treated with assorted combinations of Necrostatin (50 μM) and Q-VD-OPh (5 μM) 30 min prior to addition of TNF (100 ng/mL) and Smac mimetic (500 nM). After 24 h for MDF cells or 48 h for U937 cells, cells were harvested and PI positive cells (1 μg/mL) quantified using a BD FACSCalibur flow cytometer.

U937 cells = assay: Counter screen: cell viability without TSQ cocktail (off target effect); assay type: cell-based; conditions: U937 without TSQ cocktail; for Off target effect (% cell death) at 500 nM: compound at 500 nM; for Off target effect (% cell death) at 1 uM: compound at 1 uM; for Off target effect (% cell death) at 5 uM: compound at 5 uM; for Off target effect (% cell death) at 10 uM: compound at 10 uM
Protocol: In parallel, all compounds are tested for their ability to affect cell viability. The same U937 cells are treated with compound in DMSO without the TSQ cocktail. This counter screen enables evaluation of off-target effects. In this case gain, cell viability is measured by flow cytometry after PI staining.

[3] = molecular target: T2, human MLKL ATP-binding site (Homo sapiens, UniProt Q8NB16); assay: Complex between compound and human MLKL (FIG. 5); conditions: FIG. 5 (A) and (B)
T2 sequence (Q8NB16 1-471): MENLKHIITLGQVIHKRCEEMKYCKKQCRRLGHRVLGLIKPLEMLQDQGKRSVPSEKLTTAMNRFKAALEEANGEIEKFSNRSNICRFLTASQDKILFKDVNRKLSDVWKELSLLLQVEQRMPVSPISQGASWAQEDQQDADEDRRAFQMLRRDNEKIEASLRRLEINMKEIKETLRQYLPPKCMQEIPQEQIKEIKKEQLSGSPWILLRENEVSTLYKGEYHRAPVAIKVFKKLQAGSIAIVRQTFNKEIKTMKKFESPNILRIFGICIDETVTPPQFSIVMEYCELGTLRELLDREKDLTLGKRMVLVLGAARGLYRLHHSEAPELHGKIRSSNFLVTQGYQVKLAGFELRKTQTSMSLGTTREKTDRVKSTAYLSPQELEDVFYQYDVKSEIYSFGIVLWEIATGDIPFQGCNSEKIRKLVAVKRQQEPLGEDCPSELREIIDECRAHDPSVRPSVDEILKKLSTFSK

[4] = U-937, U937, TSQ, 48 hours, unit not given in Table 2 (titrations given in nM), read-out: Cell based assay IC50
[5] = U-937, Table 1, U937 cells, TSQ-induced necroptosis, read-out: Inhibition of necroptosis (IC50)

Row | Structure (SMILES) | Kd [1] [nM] | IC50 ([2]; U-937, 48 h, read-out: Cell based assay Average) [nM] | IC50 ([2]; U-937, 48 h, read-out: Cell based assay IC50) [nM] | IC50 (wild type U937 cells; U-937, read-out: Inhibition of necroptosis (IC50)) [nM] | IC50 ([2]; U-937, U937, TSQ, 48 hours, average IC50, unit not given in Table 2 (titrations in nM), read-out: Cell based assay Average) [nM] | IC50 [2, 4] [nM] | Off target effect (% cell death) at 500 nM (U937 cells) [%] | Off target effect (% cell death) at 1 uM (U937 cells) [%] | Off target effect (% cell death) at 5 uM (U937 cells) [%] | Off target effect (% cell death) at 10 uM (U937 cells) [%] | IC50 (wild type U937 cells; [5]) [nM] | binding site in complex with human MLKL [3]
1 | CN(c1ccc(NC(=O)Nc2ccc(OC(F)(F)F)cc2)cc1)c1ccnc(Nc2ccc(S(N)(=O)=O)cc2)n1 [Compound 4, 4-(4-(Methyl(4-(3-(4-(trifluoromethoxy)phenyl)ureido)phenyl)amino)pyrimidin-2-ylamino)benzenesulfonamide] | 4700 | > 5000 | 1460 | > 1000 |  |  |  |  |  |  |  | 
2 | CN(c1ccc(NC(=O)Nc2cc(C(F)(F)F)ccc2F)cc1)c1ccnc(Nc2cccc(S(N)(=O)=O)c2)n1 [Compound 3] |  |  |  |  | 15.3 | 3.31 | 40 | 72 | 86 | 84 | 1 to 5 | binds within the ATP-binding site of human MLKL
3 | CN(c1ccc(NC(=O)Nc2ccccc2)cc1)c1ccnc(Nc2cccc(S(N)(=O)=O)c2)n1 [Compound 2] | 1300 |  |  |  |  | 123 | 24 | 23 | 32 | 87 | 400 to 800 | 
